Experimental data published in patent US6548082B1, “Methods for treating apnea and apnea disorders using optically pure R(+) ondansetron” (Sepracor Inc., priority 1999, dated 2003).
Read-outs that look alike come from different tables or passages of the source.

What was measured:
[1] = test system: mongrel dogs; assay: Electrophysiological (EKG) effects of ondansetron enantiomers and racemate in dogs, rising cumulative doses; conditions: for Death or survival of dogs during or shortly after the experiment: four dogs per treatment, 0-4.0 mg/kg cumulative
Protocol: (§1) An investigation was conducted to determine the effect of racemic ondansetron and the R(+)- and S(−)-enanatiomers of ondansetron in causing cardiac arrhythmias (cardiotoxicity) resulting from a lengthening of the cardiac action potential.
(§2) The order of administration was randomized to ensure that each dog received only one treatment.

[2] = test system: mongrel dogs; conditions: dog, in vivo
Protocol: as §1, §2

For `Cc1nccn1CC1CCc2c(c3ccccc3n2C)C1=O` (racemic) [R,S-Ondansetron, ondansetron], the “Prolongation of QTc interval, compared among treatments” value ([1]; dogs, comparison in words of the three treatments) was “most prolonged” and the “Death or survival of dogs during or shortly after the experiment” value [1] was “survived”.
In the case of `Cc1nccn1C[C@H]1CCc2c(c3ccccc3n2C)C1=O` [R(+)-Ondansetron, R(+) ondansetron], the “Cardiotoxicity, compared among treatments” value ([1]; conclusion from QTc and mortality data in dogs) is reported as “less cardiotoxicity than either S(−) ondansetron or racemic ondansetron”, the “Death or survival of dogs during or shortly after the experiment” value [1] is reported as “survived” and the “Prolongation of QTc interval, compared among treatments” value [2] is reported as “shortest”.
In the case of `Cc1nccn1C[C@@H]1CCc2c(c3ccccc3n2C)C1=O` [S(−)-Ondansetron, S(−) ondansetron], the “Prolongation of QTc interval, compared among treatments” value [2] is reported as “most prolonged” and the “QTc Interval” value ([2]; 4 mg/kg) is reported as 0.44 ± 0.03 s.
